Laboratory results from patent US20260042764A1, “COMPOSITIONS AND METHODS FOR INHIBITION OF KRAS” (TheRas, Inc., priority 2022, published 2026).

Legend:
[1] = target: T1, Avi-KRAS G12D (1-169) GppNHp/RAF1 RBD-3xFLAG (52-151) (Homo sapiens, UniProt P01116, G12D); assay: Raf1-KRAS G12D-GppNHP disruption HTRF assay (Biological Example 1); format: binding
T1 construct: Avi-KRAS G12D (1-169)
In short: (§1)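 Read-out is HTRF signal of the KRAS–RAF1 RBD complex, reported as percentage of activity relative to DMSO (100%). Protein mix and detection reagents each incubated 1 h at room temperature with 700 rpm shaking. Buffer: 50 mM Tris pH 7.5, 100 mM NaCl, 5 mM MgCl2, 0.1% BSA, 0.01% Tween, 10% DMSO.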

GP2d cells (KRAS G12D) = assay: Cell-based pERK HTRF assay in GP2d cell (Biological Example 2); settings: GP2d (KRAS G12D) cells, pERK HTRF
In short: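 GP2d (KRAS G12D) cells were plated in DMEM/10% FBS and treated the next day for 60 min with compounds. Dosing used 9-point half-log series starting at 1 μM or 100 nM in 0.25% DMSO. Lysates were read by HTRF pERK (d2/Eu cryptate antibodies) after 4–24 h at room temperature, with excitation at 320 nm and emission at 615 nm.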

[2] = target: T2, Avi-KRAS WT (1-169) GppNHp/RAF1 RBD-3xFLAG (52-151) (Homo sapiens, UniProt P01116); assay: Raf1-KRAS WT-GppNHP disruption HTRF assay (Biological Example 1); format: binding
T2 construct: Avi-KRAS WT (1-169)
T2 sequence (P01116 1-169 isoform P01116-2): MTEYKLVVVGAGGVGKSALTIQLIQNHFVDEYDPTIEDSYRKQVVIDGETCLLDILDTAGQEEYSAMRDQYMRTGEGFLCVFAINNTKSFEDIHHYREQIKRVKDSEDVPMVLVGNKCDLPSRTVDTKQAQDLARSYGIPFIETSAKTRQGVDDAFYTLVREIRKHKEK
In short: as §1

[3] = target: T3, Avi-KRAS G12R (1-169) GppNHp/RAF1 RBD-3xFLAG (52-151) (Homo sapiens, UniProt P01116, G12R); assay: Raf1-KRAS G12R-GppNHP disruption HTRF assay (Biological Example 1); format: binding
T3 construct: Avi-KRAS G12R (1-169)
T3 sequence (P01116 1-169 isoform P01116-2 G12R): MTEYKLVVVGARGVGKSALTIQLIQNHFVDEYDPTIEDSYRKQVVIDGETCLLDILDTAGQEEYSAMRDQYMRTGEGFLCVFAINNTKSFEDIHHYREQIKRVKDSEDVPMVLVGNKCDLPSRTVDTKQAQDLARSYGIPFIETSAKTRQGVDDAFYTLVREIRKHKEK
In short: as §1

SW620 cells (KRAS G12V) = assay: Cell-based pERK HTRF assay in SW620 cell (Biological Example 4); settings: pERK HTRF
In short: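 SW620 (KRAS G12V) cells seeded at 3×10^4/well in RPMI, 10% FBS, then treated next day for 4 h with a 9-point half-log series from 1 μM top (0.25% DMSO). Lysates analyzed for pERK by HTRF (Eu cryptate/d2 antibodies, 4–24 h at room temperature), excitation 320 nm, emission 615 nm.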

[4] = target: T4, Avi-KRAS G12V (1-169) GppNHp/RAF1 RBD-3xFLAG (52-151) (Homo sapiens, UniProt P01116, G12V); assay: Raf1-KRAS G12V-GppNHP disruption HTRF assay (Biological Example 1); format: binding
T4 construct: Avi-KRAS G12V (1-169)
T4 sequence (P01116 1-169 isoform P01116-2 G12V): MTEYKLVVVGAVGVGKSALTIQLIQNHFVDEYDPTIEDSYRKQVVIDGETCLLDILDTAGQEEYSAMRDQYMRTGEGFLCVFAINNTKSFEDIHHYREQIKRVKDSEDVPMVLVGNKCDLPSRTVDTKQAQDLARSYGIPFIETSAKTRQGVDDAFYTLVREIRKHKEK
In short: as §1

[5] = Homo sapiens, SW-620, SW620 (KRAS G12V) cells
[6] = KRAS G12D, GppNHp-loaded, class symbols
[7] = KRAS WT, GppNHp-loaded, class symbols
[8] = KRAS G12R, GppNHp-loaded, class symbols
[9] = Homo sapiens, SW-620, SW620 (KRAS G12V) cells, class symbols
[10] = KRAS G12V, GppNHp-loaded, class symbols

T1 sequence (P01116 1-169 isoform P01116-2 G12D): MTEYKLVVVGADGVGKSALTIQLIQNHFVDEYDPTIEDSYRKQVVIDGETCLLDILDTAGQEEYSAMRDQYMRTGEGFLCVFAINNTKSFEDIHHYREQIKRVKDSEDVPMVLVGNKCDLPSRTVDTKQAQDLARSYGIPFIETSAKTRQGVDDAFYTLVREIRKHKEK

Row | IC50 ([1]; KRAS G12D-GppNHp/RAF1 RBD HTRF) [nM] | IC50 (GP2d cells (KRAS G12D); GP2d) [nM] | IC50 ([2]; KRAS WT-GppNHp/RAF1 RBD HTRF) [nM] | IC50 ([3]; KRAS G12R-GppNHp/RAF1 RBD HTRF) [nM] | IC50 (SW620 cells (KRAS G12V); [5]) [nM] | IC50 ([4]; KRAS G12V-GppNHp/RAF1 RBD HTRF) [nM] | Compound | other results
1 | 100 to 1000 | < 100 | 100 to 1000 | 100 to 1000 | < 100 | 100 to 1000 | CCN(c1nc(OC[C@@]23CCCN2C[C@H](F)C3)nc2c(F)c(-c3ccc(F)c4sc(N)c(C#N)c34)c(C(F)(F)F)cc12)[C@@H]1CCN(C(=O)OC)[C@@H]1C [Compound 489] | 
2 |  |  |  |  |  |  | N#Cc1c(N)sc2c(F)ccc(-c3c(C(F)(F)F)cc4c(N5CCn6nccc6C5)nc(OC[C@@]56CCCN5C[C@H](F)C6)nc4c3F)c12 [Compound 233] | IC50 ([1]; KRAS G12D, GppNHp-loaded, Table 11): 100 to 1000 nM; IC50 (GP2d cells (KRAS G12D)): < 100 nM; IC50 ([2]; KRAS WT, GppNHp-loaded, Table 11): 100 to 1000 nM; IC50 ([3]; KRAS G12R, GppNHp-loaded, Table 11): 100 to 1000 nM; IC50 (SW620 cells (KRAS G12V); SW620 (KRAS G12V) cells): < 100 nM; IC50 ([4]; KRAS G12V, GppNHp-loaded, Table 11): 1000 to 10000 nM
3 | 1000 to 10000 | 100 to 1000 | 1000 to 10000 | 1000 to 10000 | 100 to 1000 | 1000 to 10000 | C[C@@H]1[C@H](N(C)c2nc(OC[C@@]34CCCN3C[C@H](F)C4)nc3c(F)c(-c4ccc(F)c5sc(N)c(C#N)c45)c(Cl)cc23)CCN1C(=O)C(C)(F)F [Compound 420] | 
4 |  |  |  |  |  |  | CCN(c1nc(OC[C@@]23CCCN2C[C@H](F)C3)nc2c(F)c(-c3ccc(F)c4sc(N)c(C#N)c34)c(C(F)(F)F)cc12)[C@H]1CCN(C(=O)N(C)C2COC2)C1 (atropisomer, axis not shown) [Compound 598] | IC50 [1, 6]: < 100 nM; IC50 (GP2d cells (KRAS G12D); GP2d, class symbols): < 100 nM; IC50 [2, 7]: < 100 nM; IC50 [3, 8]: < 100 nM; IC50 (SW620 cells (KRAS G12V); [9]): < 100 nM; IC50 [4, 10]: < 100 nM
5 |  |  |  |  |  |  | CCN(c1nc(OC[C@@]23CCCN2C[C@H](F)C3)nc2c(F)c(-c3ccc(F)c4sc(N)c(C#N)c34)c(C(F)(F)F)cc12)[C@H]1CCN(C(=O)c2cnnn2C)C1 (atropisomer, axis not shown) [Compound 733] | IC50 [1, 6]: < 100 nM; IC50 (GP2d cells (KRAS G12D); GP2d, class symbols): < 100 nM; IC50 [2, 7]: 100 to 1000 nM; IC50 [3, 8]: 100 to 1000 nM; IC50 (SW620 cells (KRAS G12V); [9]): < 100 nM; IC50 [4, 10]: 100 to 1000 nM
6 | 1000 to 10000 | < 100 | 100 to 1000 | 1000 to 10000 | 100 to 1000 | 1000 to 10000 | CC(=O)N1CCC2[C@H]1CCCN2c1nc(OC[C@@]23CCCN2C[C@H](F)C3)nc2c(F)c(-c3ccc(F)c4sc(N)c(C#N)c34)c(C(F)(F)F)cc12 (stereo partly drawn) [Compound 304] | 
7 | 100 to 1000 | < 100 | 100 to 1000 | 100 to 1000 | < 100 | 100 to 1000 | CCC(=O)N1CC[C@@H](N(CC)c2nc(OC[C@@]34CCCN3C[C@H](F)C4)nc3c(F)c(-c4ccc(F)c5sc(N)c(C#N)c45)c(Cl)cc23)[C@H]1C [Compound 324] | 
